Like-named read-outs stand apart in the source and are kept apart here.
Key:
[1] = cited from earlier work
[2] = Unbound vismodegib plasma concentration; assay type: in vivo, human; conditions: for unbound vismodegib concentrations: after daily dosing 150 mg, mean ± SD
clinical [3] = conditions: human, in vivo, 150 mg, AUC0–168
[4] = tested on: basal cell carcinoma (BCC); conditions: oral 150 mg daily, cited from earlier work
clinical [5] = conditions: human, in vivo, 150 mg, AUC0–24
[6] = high permeability, low solubility; cited from earlier work
[7] = Adverse events at least possibly related to vismodegib during daily dosing; assay type: in vivo, human
advanced solid tumors = experiment: Anticancer activity by RECIST 1.1 in advanced solid tumor patients; assay type: in vivo, human
[8] = all patients during daily dosing (both groups)
[9] = 46 patients evaluable for response, 150 mg daily

For CS(=O)(=O)CCNCc1ccc(-c2ccc3ncnc(Nc4ccc(OCc5cccc(F)c5)c(Cl)c4)c3c2)o1 [lapatinib], the “increase in exposure (area-under-the-curve; AUC) with food” value [1] is listed as 150%.

With CS(=O)(=O)c1ccc(C(=O)Nc2ccc(Cl)c(-c3ccccn3)c2)c(Cl)c1 [vismodegib] the unbound vismodegib concentrations ([2]; fasting group) was 79 ± 53 ng/mL, the unbound vismodegib concentrations ([2]; fed group) was 103 ± 49 ng/mL and the “Steady-state unbound drug concentrations as share of total concentrations” value ([2]; daily dosing, fasting and fed groups) was “less than 1%”. The AUC(0-t) (clinical [3]) was 417 µg·h/mL, the response rate ([4]; locally advanced BCC) was 43% and the response rate ([4]; metastatic BCC) was 30%. The AUC(0-t) (clinical [5]) was 239 µg·h/mL, the “Biopharmaceutics Classification System class” value [6] was 2 and the “Alopecia, All grades (%)” value ([7]; Fasting (n=31), 150 mg daily) was 4 (13) n (%). The “Anorexia, All grades (%)” value ([7]; Fasting (n=31), 150 mg daily) was 9 (29) n (%), the “Diarrhea, All grades (%)” value ([7]; Fasting (n=31), 150 mg daily) was 4 (13) n (%) and the “Dizziness, All grades (%)” value ([7]; Fasting (n=31), 150 mg daily) was 3 (10) n (%). For the same compound, the “Dysgeusia, All grades (%)” value ([7]; Fasting (n=31), 150 mg daily) was 8 (26) n (%), the “Dyspnea, All grades (%)” value ([7]; Fasting (n=31), 150 mg daily) was 3 (10) n (%) and the “Fatigue, All grades (%)” value ([7]; Fasting (n=31), 150 mg daily) was 11 (35) n (%). The “Fatigue, Grade 3 (%)” value ([7]; Fasting (n=31), 150 mg daily) was 2 (6) n (%), the “Hyperglycemia, All grades (%)” value ([7]; Fasting (n=31), 150 mg daily) was 2 (6) n (%) and the “Hyperkalemia, All grades (%)” value ([7]; Fasting (n=31), 150 mg daily) was 1 (3) n (%). The “Hypophosphatemia, All grades (%)” value ([7]; Fasting (n=31), 150 mg daily) was 3 (10) n (%), the “Hypophosphatemia, Grade 3 (%)” value ([7]; Fasting (n=31), 150 mg daily) was 1 (3) n (%) and the “Myalgia, All grades (%)” value ([7]; Fasting (n=31), 150 mg daily) was 6 (19) n (%). For the same compound, the “Nausea, All grades (%)” value ([7]; Fasting (n=31), 150 mg daily) was 10 (32) n (%), the “Vomiting, All grades (%)” value ([7]; Fasting (n=31), 150 mg daily) was 4 (13) n (%) and the “Weight loss, All grades (%)” value ([7]; Fasting (n=31), 150 mg daily) was 5 (16) n (%). The “Alopecia, All grades (%)” value ([7]; Fed (n=30), 150 mg daily) was 1 (3) n (%), the “Anorexia, All grades (%)” value ([7]; Fed (n=30), 150 mg daily) was 13 (43) n (%) and the “Diarrhea, All grades (%)” value ([7]; Fed (n=30), 150 mg daily) was 3 (10) n (%). The “Dizziness, All grades (%)” value ([7]; Fed (n=30), 150 mg daily) was 2 (7) n (%), the “Dysgeusia, All grades (%)” value ([7]; Fed (n=30), 150 mg daily) was 13 (43) n (%) and the “Fatigue, All grades (%)” value ([7]; Fed (n=30), 150 mg daily) was 11 (37) n (%). For the same compound, the “Fatigue, Grade 3 (%)” value ([7]; Fed (n=30), 150 mg daily) was 1 (3) n (%), the “Hyperglycemia, All grades (%)” value ([7]; Fed (n=30), 150 mg daily) was 1 (3) n (%) and the “Hyperkalemia, All grades (%)” value ([7]; Fed (n=30), 150 mg daily) was 1 (3) n (%). For the same compound, the “Hyperkalemia, Grade 3 (%)” value ([7]; Fed (n=30), 150 mg daily) was 1 (3) n (%), the “Myalgia, All grades (%)” value ([7]; Fed (n=30), 150 mg daily) was 7 (23) n (%) and the “Nausea, All grades (%)” value ([7]; Fed (n=30), 150 mg daily) was 9 (30) n (%). For the same compound, the “Neutropenia, All grades (%)” value ([7]; Fed (n=30), 150 mg daily) was 1 (3) n (%), the “Neutropenia, Grade 3 (%)” value ([7]; Fed (n=30), 150 mg daily) was 1 (3) n (%) and the “Vomiting, All grades (%)” value ([7]; Fed (n=30), 150 mg daily) was 3 (10) n (%). The “Weight loss, All grades (%)” value ([7]; Fed (n=30), 150 mg daily) was 2 (7) n (%), the “anorexia, any grade, frequency” value [7, 8] was 36% and the “dysgeusia, any grade, frequency” value [7, 8] was 34%. For the same compound, the “fatigue, Grade 3, frequency” value [7, 8] was 5%, the “fatigue, any grade, frequency” value [7, 8] was 36% and the “hyperkalemia, Grade 3, frequency” value [7, 8] was 2%. For the same compound, the “hypophosphatemia, Grade 3, frequency” value [7, 8] was 2%, the “nausea, any grade, frequency” value [7, 8] was 31% and the “neutropenia, Grade 3, frequency” value [7, 8] was 2%. The “objective responses (RECIST 1.1)” value (advanced solid tumors; [9]) was “no objective responses”, the “patients with stable disease” value (advanced solid tumors; [9]) was “Nine” and the “range of duration of stable disease” value (advanced solid tumors; patients with stable disease, longest in a patient with BCC) was 8 to 152 weeks.
